According to the CheMixHub viscosity set:

Experiment: xn = mol fraction of the nth substance listed

O=[N+]([O-])c1ccccc1 + CC(C)O
viscosity [mPa·s]
Details | 293.15 K | 298.15 K | 303.15 K | 308.15 K | 313.15 K | 318.15 K | 323.15 K
100 kPa, x1 = 0.081 | 2.112 | 1.849 | 1.625 | 1.428 | 1.247 | 1.101 | 0.9776
100 kPa, x1 = 0.16 | 1.892 | 1.679 | 1.494 | 1.333 | 1.166 | 1.039 | 0.9339
100 kPa, x1 = 0.2401 | 1.742 | 1.56 | 1.402 | 1.264 | 1.111 | 1.003 | 0.9084
100 kPa, x1 = 0.3501 | 1.624 | 1.468 | 1.332 | 1.212 | 1.082 | 0.9879 | 0.9036
100 kPa, x1 = 0.44 | 1.597 | 1.446 | 1.318 | 1.203 | 1.088 | 1.002 | 0.9207
100 kPa, x1 = 0.56 | 1.637 | 1.482 | 1.347 | 1.232 | 1.134 | 1.05 | 0.9715
100 kPa, x1 = 0.6499 | 1.703 | 1.54 | 1.401 | 1.281 | 1.187 | 1.105 | 1.024
100 kPa, x1 = 0.7399 | 1.795 | 1.622 | 1.475 | 1.349 | 1.256 | 1.171 | 1.087
100 kPa, x1 = 0.85 | 1.92 | 1.739 | 1.586 | 1.454 | 1.355 | 1.262 | 1.174
100 kPa, x1 = 0.9399 | 2.022 | 1.842 | 1.685 | 1.55 | 1.442 | 1.342 | 1.25
101.33 kPa, x1 = 0.0512 | – | 1.881 | 1.567 | – | – | – | –
101.33 kPa, x1 = 0.1088 | – | 1.67 | 1.476 | – | – | – | –
101.33 kPa, x1 = 0.1732 | – | 1.529 | 1.344 | – | – | – | –
101.33 kPa, x1 = 0.2456 | – | 1.462 | 1.297 | – | – | – | –
101.33 kPa, x1 = 0.3281 | – | 1.459 | 1.277 | – | – | – | –
101.33 kPa, x1 = 0.4228 | – | 1.45 | 1.292 | – | – | – | –
101.33 kPa, x1 = 0.5325 | – | 1.439 | 1.323 | – | – | – | –
101.33 kPa, x1 = 0.661 | – | 1.523 | 1.398 | – | – | – | –
101.33 kPa, x1 = 0.8145 | – | 1.603 | 1.434 | – | – | – | –

Cc1nc(C)c(C)[nH]1 + O
viscosity [mPa·s], 100 kPa
Details | x1 = 0.0179 | x1 = 0.0393 | x1 = 0.0655 | x1 = 0.0983 | x1 = 0.141
298.15 K | 1.317 | 2.01 | 3.12 | 5.27 | 9.35
303.15 K | 1.157 | 1.754 | 2.71 | 4.41 | 7.38
313.15 K | 0.944 | 1.384 | 2.08 | 3.24 | 4.87
323.15 K | 0.774 | 1.1 | 1.598 | 2.4 | 3.44

c1ccccc1 + CCCCCCC
Details | viscosity [mPa·s]
294.15 K, 101 kPa, x1 = 0.6 | 0.4728
295.15 K, 101 kPa, x1 = 0.3 | 0.427
298 K, 101 kPa, x1 = 0.5 | 0.4167
298 K, 101.33 kPa, x1 = 0.1007 | 0.3923
298 K, 101.33 kPa, x1 = 0.1109 | 0.3913
298 K, 101.33 kPa, x1 = 0.1922 | 0.4003
298 K, 101.33 kPa, x1 = 0.276 | 0.4019
298 K, 101.33 kPa, x1 = 0.2915 | 0.4023
298 K, 101.33 kPa, x1 = 0.3953 | 0.4142
298 K, 101.33 kPa, x1 = 0.4839 | 0.4157
298 K, 101.33 kPa, x1 = 0.5204 | 0.4382
298 K, 101.33 kPa, x1 = 0.6729 | 0.4487
298 K, 101.33 kPa, x1 = 0.6893 | 0.5006
298 K, 101.33 kPa, x1 = 0.6967 | 0.4544
298 K, 101.33 kPa, x1 = 0.8532 | 0.5208
298 K, 101.33 kPa, x1 = 0.9152 | 0.5442
298.15 K, 101 kPa, x2 = 0.1025 | 0.53
298.15 K, 101 kPa, x2 = 0.2002 | 0.491
298.15 K, 101 kPa, x2 = 0.2919 | 0.46
298.15 K, 101 kPa, x2 = 0.4003 | 0.429
298.15 K, 101 kPa, x2 = 0.5192 | 0.41
298.15 K, 101 kPa, x2 = 0.6209 | 0.401
298.15 K, 101 kPa, x2 = 0.7084 | 0.392
298.15 K, 101 kPa, x2 = 0.7893 | 0.388
298.15 K, 101 kPa, x2 = 0.9165 | 0.386
298.15 K, 101.33 kPa, x2 = 0.095 | 0.532
298.15 K, 101.33 kPa, x2 = 0.1973 | 0.485
298.15 K, 101.33 kPa, x2 = 0.2999 | 0.455
298.15 K, 101.33 kPa, x2 = 0.3741 | 0.439
298.15 K, 101.33 kPa, x2 = 0.3984 | 0.431
298.15 K, 101.33 kPa, x2 = 0.4961 | 0.414
298.15 K, 101.33 kPa, x2 = 0.5995 | 0.403
298.15 K, 101.33 kPa, x2 = 0.6762 | 0.397
298.15 K, 101.33 kPa, x2 = 0.7309 | 0.395
298.15 K, 101.33 kPa, x2 = 0.7987 | 0.391
298.15 K, 101.33 kPa, x2 = 0.8933 | 0.389
308.15 K, 101 kPa, x2 = 0.1025 | 0.47
308.15 K, 101 kPa, x2 = 0.2002 | 0.44
308.15 K, 101 kPa, x2 = 0.2919 | 0.412
308.15 K, 101 kPa, x2 = 0.4003 | 0.388
308.15 K, 101 kPa, x2 = 0.5192 | 0.37
308.15 K, 101 kPa, x2 = 0.6209 | 0.36
308.15 K, 101 kPa, x2 = 0.7084 | 0.355
308.15 K, 101 kPa, x2 = 0.7893 | 0.351
308.15 K, 101 kPa, x2 = 0.9165 | 0.349
318 K, 101 kPa, x1 = 0.5 | 0.3407
318.15 K, 101 kPa, x2 = 0.1025 | 0.42
318.15 K, 101 kPa, x2 = 0.2002 | 0.396
318.15 K, 101 kPa, x2 = 0.2919 | 0.371
318.15 K, 101 kPa, x2 = 0.4003 | 0.352
318.15 K, 101 kPa, x2 = 0.5192 | 0.338
318.15 K, 101 kPa, x2 = 0.6209 | 0.33
318.15 K, 101 kPa, x2 = 0.7084 | 0.325
318.15 K, 101 kPa, x2 = 0.7893 | 0.319
318.15 K, 101 kPa, x2 = 0.9165 | 0.318
323.15 K, 101 kPa, x1 = 0.6 | 0.342

CCCCCCCCCCCCCC + Cc1ccccc1
viscosity [mPa·s], 101 kPa
Details | x1 = 0.1106 | x1 = 0.1996 | x1 = 0.2947 | x1 = 0.3965 | x1 = 0.5013 | x1 = 0.5988 | x1 = 0.7002 | x1 = 0.7982 | x1 = 0.8995
298.15 K | 0.697 | 0.803 | 0.909 | 1.038 | 1.168 | 1.318 | 1.468 | 1.664 | 1.86
303.15 K | 0.654 | 0.748 | 0.842 | 0.962 | 1.081 | 1.211 | 1.341 | 1.513 | 1.685
308.15 K | 0.613 | 0.699 | 0.786 | 0.894 | 1.002 | 1.115 | 1.228 | 1.384 | 1.54

O=[N+]([O-])c1ccccc1 + CCO
viscosity [mPa·s], 101.33 kPa
Details | x1 = 0.0399 | x1 = 0.0856 | x1 = 0.1382 | x1 = 0.1997 | x1 = 0.2723 | x1 = 0.3595 | x1 = 0.4661 | x1 = 0.5995 | x1 = 0.7711
298.15 K | 1.06 | 1.048 | 1.061 | 1.073 | 1.116 | 1.166 | 1.201 | 1.317 | 1.44
303.15 K | 0.9662 | 0.9579 | 0.9691 | 0.9809 | 1.01 | 1.068 | 1.085 | 1.207 | 1.312

ClC(Cl)=C(Cl)Cl + CCCCCC
303.15 K, 101 kPa
Details | viscosity [mPa·s]
x1 = 0.1642 | 0.358
x1 = 0.2468 | 0.388
x1 = 0.3358 | 0.432
x1 = 0.4336 | 0.471
x1 = 0.4782 | 0.494
x1 = 0.514 | 0.515
x1 = 0.6464 | 0.591
x1 = 0.7236 | 0.643
x1 = 0.8072 | 0.697
x1 = 0.9346 | 0.776

C1CCC2CCCCC2C1 (centres undefined) + CC12CC3CC(C1)CC(C)(C3)C2
viscosity [mPa·s], 100 kPa
Details | x2 = 0.1034 | x2 = 0.2043 | x2 = 0.305 | x2 = 0.4034 | x2 = 0.5024 | x2 = 0.6048 | x2 = 0.7046 | x2 = 0.8094 | x2 = 0.9013
293.15 K | 2.607 | 2.713 | 2.812 | 2.919 | 3.039 | 3.167 | 3.31 | 3.465 | 3.622
298.15 K | 2.361 | 2.449 | 2.53 | 2.628 | 2.728 | 2.844 | 2.967 | 3.102 | 3.237
303.15 K | 2.148 | 2.227 | 2.299 | 2.384 | 2.468 | 2.57 | 2.675 | 2.799 | 2.909
313.15 K | 1.802 | 1.86 | 1.917 | 1.98 | 2.046 | 2.125 | 2.206 | 2.298 | 2.385
323.15 K | 1.505 | 1.547 | 1.592 | 1.641 | 1.697 | 1.759 | 1.825 | 1.902 | 1.974
